Test results published in patent US8841310B2, “Combinations of a pyrimidine containing NNRTI with RT inhibitors” (Janssen R & D Ireland, priority 2003, dated 2014).
Where two headings read alike, the source gives them in different places.

Assays:
HIV-1 [1] = conditions: cited from earlier work
HIV-1 [2] = conditions: human PBMCs and MT-2 cells, increasing drug concentrations; cited from earlier work
HIV-1 RT = target: T1, HIV-1 RT (Human immunodeficiency virus type 1 group M subtype B, UniProt P04585); conditions: read-out: inhibition constant; cited from earlier work
T1 construct: The primary target of tenofovir diphosphate is reverse transcriptase (RT)

HIV-1 wild type = assay: MT-4 cell-based antiviral assay (viral cytopathicity, tetrazolium); conditions: Human immunodeficiency virus 1, MT4
Description: (§1) Compound E-TMC278 was tested in a cell-based assay, using natural host cells of HIV. MT-4 cells (a cell line of human T cells) were infected with HIV-1 (wild type or mutants) and exposed to different concentrations of antiviral compound in the presence of 10% fetal calf serum. Cytotoxicity was determined in parallel with the antiviral activity so that the selectivity of the antiviral effect could be assessed. Active compounds have to penetrate the cell membrane in order to interfere with replication steps inside the cell.
(§2) After four days of incubation at 37° C., the viability of the HIV and mock-infected cells was assessed by an automated tetrazolium-based calorimetric assay. This method enabled the calculation of both the 50% inhibitory concentration for inhibition of viral cytopathicity (IC50), the IC90, and the 50% cytotoxic concentration (CC50). The ratio CC50/IC50, also called the selectivity index, is an indication of the specificity of the antiviral effect. Tested HIV strains included: Wild type (wt) HIV-1; a panel of single and double mutants, obtained by site-directed mutagenesis (SDM), and a panel of clinical isolates, selected for resistance against NNRTIs.

HIV-1 mutant 188H = assay: MT-4 cell-based antiviral assay, SDM mutant; conditions: Human immunodeficiency virus 1, MT4
Description: as §1, §2
(§3) A limited panel of HIV-1 mutants was constructed using site-directed mutagenesis (SDM) and homologous recombination techniques. […] Nevirapine (NVP) and efavirenz (EFV) were included as controls.

HIV-1 mutant 100I = assay: MT-4 cell-based antiviral assay, SDM mutant
Description: as §1, §2, §3

HIV-1 mutant 179D = assay: MT-4 cell-based antiviral assay, SDM mutant; conditions: Human immunodeficiency virus 1, MT4
Description: as §1, §2, §3

HIV-1 mutant 181C = assay: MT-4 cell-based antiviral assay, SDM mutant
Description: as §1, §2, §3

HIV-1 mutant 108I = assay: MT-4 cell-based antiviral assay, SDM mutant; conditions: Human immunodeficiency virus 1, MT4
Description: as §1, §2, §3

HIV-1 mutant 106A = assay: MT-4 cell-based antiviral assay, SDM mutant; conditions: Human immunodeficiency virus 1, MT4
Description: as §1, §2, §3

HIV-1 mutant 227L = assay: MT-4 cell-based antiviral assay, SDM mutant; conditions: Human immunodeficiency virus 1, MT4
Description: as §1, §2, §3

HIV-1 mutant 227C = assay: MT-4 cell-based antiviral assay, SDM mutant
Description: as §1, §2, §3

HIV-1 mutant 190A = assay: MT-4 cell-based antiviral assay, SDM mutant; conditions: Human immunodeficiency virus 1, MT4
Description: as §1, §2, §3

HIV-1 mutant 179E = assay: MT-4 cell-based antiviral assay, SDM mutant; conditions: Human immunodeficiency virus 1, MT4
Description: as §1, §2, §3

HIV-1 mutant 188L = assay: MT-4 cell-based antiviral assay, SDM mutant
Description: as §1, §2, §3

[3] = test system: HIV-1 double mutant 100I + 103N; assay: MT-4 cell-based antiviral assay, SDM mutant
Description: as §1, §2, §3

HIV-1 mutant 188C = assay: MT-4 cell-based antiviral assay, SDM mutant; conditions: Human immunodeficiency virus 1, MT4
Description: as §1, §2, §3

[4] = test system: HIV-1 double mutant 101E + 103N; assay: MT-4 cell-based antiviral assay, SDM mutant; conditions: Human immunodeficiency virus 1, MT4, 96 h
Description: as §1, §2, §3

HIV-1 mutant 236L = assay: MT-4 cell-based antiviral assay, SDM mutant; conditions: Human immunodeficiency virus 1, MT4
Description: as §1, §2, §3

HIV-1 mutant 103N = assay: MT-4 cell-based antiviral assay, SDM mutant
Description: as §1, §2, §3

[5] = test system: HIV-1 double mutant 227L + 106A; assay: MT-4 cell-based antiviral assay, SDM mutant
Description: as §1, §2, §3

HIV-1 mutant 225H = assay: MT-4 cell-based antiviral assay, SDM mutant; conditions: Human immunodeficiency virus 1, MT4
Description: as §1, §2, §3

HIV-1 mutant 190S = assay: MT-4 cell-based antiviral assay, SDM mutant; conditions: Human immunodeficiency virus 1, MT4
Description: as §1, §2, §3

HIV-1 mutant 138K = assay: MT-4 cell-based antiviral assay, SDM mutant; conditions: Human immunodeficiency virus 1, MT4
Description: as §1, §2, §3

HIV-1 mutant 101E = assay: MT-4 cell-based antiviral assay, SDM mutant; conditions: Human immunodeficiency virus 1, MT4
Description: as §1, §2, §3

[6] = test system: HIV-1 double mutant 103N + 181I; assay: MT-4 cell-based antiviral assay, SDM mutant; conditions: Human immunodeficiency virus 1, MT4, 96 h
Description: as §1, §2, §3

wild type HIV-1 = assay: Development of resistance in vitro, MT4 cells, high multiplicity of infection; type: cell-based; conditions: wild type HIV-1, >1 infectious virus per cell, all tested concentrations, total 30 days
Text: Emerging virus was collected for pheno- and genotyping. Cultures without evidence of virus replication were further sub-cultivated in the presence of the same concentration of inhibitor for a total duration of 30 days (10 passages).

HIV-1 mutant 234I = assay: MT-4 cell-based antiviral assay, SDM mutant; conditions: Human immunodeficiency virus 1, MT4
Description: as §1, §2, §3

[7] = test system: monotropic HIV strain Ba-L; assay: MO-DC/CD4(+) T cell co-culture model of sexual HIV transmission; type: cell-based; conditions: in words
Text: Immature monocyte derived dendritic cells (immMO-DC) represent a good model for interstitial dendritic cells, which are early targets during sexual HIV transmission and important initiators of the immune response. These immMO-DC were used in “in vitro” models to test the prevention of HIV infection via sexual intercourse or related intimate contact between partners.
For instance, in one model, monocyte-derived dendritic cells (MO-DC) were infected for 2-hours with the monotropic HIV strain Ba-L at a multiplicity of infection (MOI) of 10^−3. After infection, cells were washed 6 times and resuspended in 10% BCS at 400.000 cells/ml. Autologous CD4(+) T cells were purified out of the lymphocyte fraction of the same elutration as the MO-DC and used at a concentration of 2×10^6 cells/ml ((ratio MO-DC/CD4(+) T: 1/5).
A serial dilution of a compound of formula (I) (test compound) was added to the MO-DC/CD4(+) T cell co-cultures. Each experiment was done in 96-well plates, in which each cup contained 50 μl of MO-DC, 50 μl of CD4(+) T cells and 100 μl of test compound. Half of the culture medium, with test compound, was refreshed twice weekly. Supernatants were analysed in ELISA after 14 days of culture. To determine antiviral activity, the test compound concentration able to suppress 50% of the viral replication at the end of the primary cultures (EC50) was measured.

[8] = test system: HIV-1 double mutant 103N + 181C; assay: MT-4 cell-based antiviral assay, SDM mutant; conditions: Human immunodeficiency virus 1, MT4, read-out: IC50 value
Description: as §1, §2, §3

[9] = test system: wild-type or zidovudine-resistant HIV-1 strains; conditions: MT-4 cells; cited from earlier work
[10] = test system: laboratory strain of HIV with combination of 65R, 74V, 115F and/or 184V; conditions: combination of resistance mutations; cited from earlier work
HIV = conditions: short course of monotherapy; cited from earlier work
HIV-1 M184V = conditions: cited from earlier work
[11] = test system: simian immunodeficiency virus; conditions: SIV after 5 to 15 weeks treatment, 30 mg/kg, newborn rhesus macaques; cited from earlier work
[12] = test system: recombinant virus expressing the K65R mutation; conditions: in vitro; cited from earlier work
[13] = test system: clinical HIV strains expressing the M184V mutation; conditions: cited from earlier work
[14] = wild type, MT-4 cells, 10% fetal calf serum, read-out: IC50
[15] = Human immunodeficiency virus 1, MT4
[16] = Human immunodeficiency virus 1, MT4, 96 h, 100I + 103N, MT-4 cells
[17] = Human immunodeficiency virus 1, MT4, 96 h
[18] = Human immunodeficiency virus 1, MT4, read-out: IC50 value

In the case of `Nc1nc(=O)n([C@@H]2CS[C@H](CO)O2)cc1F` (racemic) [(−)-beta-enantiomer of FTC, Emtricitabine], the “in vitro anti-HIV-1 activity relative to the (+)-beta-enantiomer” value (HIV-1 [1]) is given as 20 fold.
In the case of `Nc1nc(=O)n([C@@H]2CS[C@H](CO)O2)cc1F` (racemic) [FTC, (±)-cis-4-amino-5-fluoro-1-[2-(hydroxymethyl)-1,3-oxathiolan-5-yl]-2(1H)-pyrimidinone], the “cycles of infection until highly drug-resistant variants dominated” value (HIV-1 [2]) is given as “two or more”.
In the case of `CC(Cn1cnc2c(N)ncnc21)OCP(=O)(O)OP(=O)(O)OP(=O)(O)O` (stereo in doubt) [Tenofovir diphosphate], the Ki (HIV-1 RT) is listed as roughly 900 nM.
In the case of `O=C1Nc2ccc(Cl)cc2[C@@](C#CC2CC2)(C(F)(F)F)O1` [EFV, efavirenz], the IC50 (HIV-1 wild type; [14]) is reported as 1.4 nM, the IC50 (HIV-1 mutant 188H) is reported as 9 nM and the IC50 (HIV-1 mutant 100I; [15]) is reported as 35 nM. The IC50 (HIV-1 mutant 179D) was 6 nM, the IC50 (HIV-1 mutant 181C; [15]) was 2 nM and the IC50 (HIV-1 mutant 108I) was 2 nM. The IC50 (HIV-1 mutant 106A) was 23 nM, the IC50 (HIV-1 mutant 227L) was 0.3 nM and the IC50 (HIV-1 mutant 227C; [15]) was 36 nM. It also gave an IC50 (HIV-1 mutant 190A) of 8 nM, an IC50 (HIV-1 mutant 179E) of 5 nM and an IC50 (HIV-1 mutant 188L; [15]) of 78 nM. For the same molecule, the IC50 [3, 16] was 10000 nM, the IC50 (HIV-1 mutant 188C) was 5 nM and the IC50 [4] was 84 nM. It also gave an IC50 (HIV-1 mutant 236L) of 1 nM, an IC50 (HIV-1 mutant 103N; [15]) of 28 nM and an IC50 [5, 17] of 8 nM. The IC50 (HIV-1 mutant 225H) was 2 nM, the IC50 (HIV-1 mutant 190S) was 275 nM and the IC50 (HIV-1 mutant 138K) was 1.3 nM. The IC50 (HIV-1 mutant 101E) was 5 nM and the IC50 [6] was 37 nM.
For `Cc1ccnc2c1NC(=O)c1cccnc1N2C1CC1` [NVP, 11-cyclopropyl-5,11-dihydro-4-methyl-6H-dipyrido-[3,2-b: 2′,3′-e][1,4]diazepin-6-one], the “time to emergence of resistant virus” value (wild type HIV-1) was 3 to 6 days, the IC50 (HIV-1 wild type; [14]) was 81 nM and the IC50 (HIV-1 mutant 188H) was 241 nM. The IC50 (HIV-1 mutant 100I; [15]) was 597 nM, the IC50 (HIV-1 mutant 179D) was 161 nM and the IC50 (HIV-1 mutant 181C; [15]) was no less than 10000 nM. It also gave an IC50 (HIV-1 mutant 106A) of 2980 nM, an IC50 (HIV-1 mutant 227L) of 78 nM and an IC50 (HIV-1 mutant 227C; [15]) of 1820 nM. For the same molecule, the IC50 (HIV-1 mutant 234I) was 45 nM, the IC50 (HIV-1 mutant 190A) was 4100 nM and the IC50 (HIV-1 mutant 179E) was 158 nM. For the same molecule, the IC50 (HIV-1 mutant 188L; [15]) was 10000 nM, the IC50 [3, 16] was 10000 nM and the IC50 (HIV-1 mutant 188C) was 3760 nM. For the same molecule, the IC50 [4] was 7030 nM, the IC50 (HIV-1 mutant 236L) was 41 nM and the IC50 (HIV-1 mutant 103N; [15]) was 2880 nM. It also gave an IC50 [5, 17] of 10000 nM, an IC50 (HIV-1 mutant 225H) of 171 nM and an IC50 (HIV-1 mutant 190S) of 10000 nM. For the same molecule, the IC50 (HIV-1 mutant 138K) was 64 nM, the IC50 (HIV-1 mutant 101E) was 547 nM and the IC50 [6] was 10000 nM.
For `Cc1cc(C=CC#N)cc(C)c1Nc1ccnc(Nc2ccc(C#N)cc2)n1` [TMC278, 4-[[4-[[4-(2-cyanoethenyl)-2,6-dimethylphenyl]-amino]-2-pyrimidinyl]-amino]-benzonitrile], the “inhibition of HIV replication in MO-DC/CD4(+) T cell co-cultures” value [7] was “potently inhibits HIV replication”.
In the case of `Cc1cc(/C=C\C#N)cc(C)c1Nc1ccnc(Nc2ccc(C#N)cc2)n1` [Z-TMC278, (Z)-4-[[4-[[4-(2-cyanoethenyl)-2,6-dimethylphenyl]-amino]-2-pyrimidinyl]-amino]-benzonitrile], the IC50 (HIV-1 wild type; Table 1, HIV RT mutation: Wild-type, read-out: IC50 value) is reported as 0.6 nM, the IC50 (HIV-1 mutant 100I; [18]) is reported as 6.3 nM and the IC50 (HIV-1 mutant 181C; [18]) is reported as 5 nM. The IC50 (HIV-1 mutant 227C; [18]) was 4 nM, the IC50 (HIV-1 mutant 188L; [18]) was 32 nM and the IC50 ([3]; Human immunodeficiency virus 1, MT4, read-out: IC50 value, Table 1, HIV RT mutation: 100I + 103N) was 790 nM. For the same molecule, the IC50 (HIV-1 mutant 103N; [18]) was 1.6 nM, the IC50 [5, 18] was 4 nM and the IC50 [8] was 40 nM.
For `Nc1nc(NC2CC2)c2ncn([C@H]3C=C[C@@H](CO)C3)c2n1` [abacavir], the “passages until significant decrease in susceptibility” value [9] is given as “eight to ten”, the reduction in susceptibility [10] is given as 10 fold and the “average reduction in viral load” value (HIV) is given as “more than 1.4 log 10 RNA copies/ml”. The “decrease in HIV-1 susceptibility” value (HIV-1 M184V) was 3 fold.
In the case of `C[C@H](Cn1cnc2c(N)ncnc21)OCP(=O)(O)O` [tenofovir], the decreased susceptibility [11] is given as “approximately 5 fold”, the decreased susceptibility [12] is given as 3 fold and the susceptibility in vitro [13] is given as “wild-type or increased susceptibility”.
